{"source": "patent US20240299377A1", "about": "“METHODS AND COMPOSITIONS FOR TREATING IRON DISORDERS” (BeyondSpring Pharmaceuticals, Inc., priority 2019, published 2024)", "test_system": "plasma haptoglobin levels", "assay": "Plasma haptoglobin levels in non-metastatic breast cancer patients receiving TAC plus plinabulin (hematology safety assessments)", "assay_type": "in vivo, human", "text": "Method. Non-metastatic Breast Cancer patients receiving TAC (taxotere, doxorubicin, cyclophosphamide) also received plinabulin at a dose of 10 (n=15), 20 (n=15) or 30 (n=12) mg/m^2. Hematology safety assessments were done at predose, and post-dose plinabulin at Day 2, 3, 6, 7, 8, 9, 10, 11, 12, 13 and 15, as predefined prospectively per protocol. Plinabulin was given on Day 1 as a single dose per 21-day cycle.", "data": [{"smiles": "CC(C)(C)c1[nH]cnc1/C=c1\\[nH]c(=O)/c(=C/c2ccccc2)[nH]c1=O", "note": "[Plinabulin, (3Z,6Z)-3-Benzylidene-6-{[5-(2-methyl-2-propanyl)-1H-imidazol-4-yl]methylene}-2,5-piperazinedione]", "values": [{"measurement": "dose comparison for increasing plasma haptoglobin levels", "setting": "30 mg/m^2 vs lower doses (10, 20 mg/m^2), p<0.01", "result": "most effective dose"}, {"measurement": "mean (SD) increase of maximum haptoglobin levels from baseline", "setting": "Plinabulin 30 mg/m^2 single dose on Day 1 of 21-day cycle with TAC, baseline mean (SD) 1.32 (0.453) g/L, p<0.0005", "result": "1.61 (1.29) g/L"}, {"measurement": "fold increase of maximum haptoglobin levels", "setting": "Plinabulin 30 mg/m^2 single dose, versus baseline", "result": "more than 2 fold"}, {"measurement": "duration of haptoglobin increase", "setting": "single dose 30 mg/m^2, FIG. 1", "result": "> 3", "unit": "weeks"}, {"measurement": "time to haptoglobin (Hp) increase after plinabulin dosing", "setting": "single dose 30 mg/m^2, P<0.03", "result": "≤ 2", "unit": "days"}]}]}
